Among the data in ChEMBL document CHEMBL1201862, “PubChem BioAssay data set” (2004) are EC50, IC50 and AC50 values, retold here.

One experiment addresses Mu-type opioid receptor (Homo sapiens, UniProt P35372). The experiment is classed as functional, cell-based.
In experiment [1] the target is 5-hydroxytryptamine receptor 2A (Mus musculus, UniProt P35363). Type of experiment: functional, cell-based.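 Note: CHO-K1 cells with tagged receptor and beta-arrestin; agonist potency measured as compound-induced activation of the receptor.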
5-hydroxytryptamine receptor 2A, sequence (P35363 whole entry): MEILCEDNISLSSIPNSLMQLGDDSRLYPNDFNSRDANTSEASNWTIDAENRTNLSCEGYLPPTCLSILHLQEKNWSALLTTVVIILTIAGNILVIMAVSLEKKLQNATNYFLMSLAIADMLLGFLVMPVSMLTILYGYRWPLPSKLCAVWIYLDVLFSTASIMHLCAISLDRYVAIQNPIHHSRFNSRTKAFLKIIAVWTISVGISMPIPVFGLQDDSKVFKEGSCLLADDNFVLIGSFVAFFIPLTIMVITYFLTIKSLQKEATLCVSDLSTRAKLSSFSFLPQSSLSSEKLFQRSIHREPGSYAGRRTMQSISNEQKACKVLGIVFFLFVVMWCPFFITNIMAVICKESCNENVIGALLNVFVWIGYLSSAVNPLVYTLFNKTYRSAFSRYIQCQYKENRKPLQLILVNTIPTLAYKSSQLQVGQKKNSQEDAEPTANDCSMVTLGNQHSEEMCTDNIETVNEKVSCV
The nature of experiment [2]: blockers of CRF-binding protein–CRF-R2 complex – cell-based, uHTS hits, 384-well, dose response (AID 651639). Type of experiment: functional, Homo sapiens. Particulars: read-out: IC50_Mean.
Experiment [3] has as its target T1, Corticotropin-releasing factor receptor 2/Corticotropin-releasing factor-binding protein (Homo sapiens, UniProt P24387+Q13324).
T1 sequence (Q13324 whole entry): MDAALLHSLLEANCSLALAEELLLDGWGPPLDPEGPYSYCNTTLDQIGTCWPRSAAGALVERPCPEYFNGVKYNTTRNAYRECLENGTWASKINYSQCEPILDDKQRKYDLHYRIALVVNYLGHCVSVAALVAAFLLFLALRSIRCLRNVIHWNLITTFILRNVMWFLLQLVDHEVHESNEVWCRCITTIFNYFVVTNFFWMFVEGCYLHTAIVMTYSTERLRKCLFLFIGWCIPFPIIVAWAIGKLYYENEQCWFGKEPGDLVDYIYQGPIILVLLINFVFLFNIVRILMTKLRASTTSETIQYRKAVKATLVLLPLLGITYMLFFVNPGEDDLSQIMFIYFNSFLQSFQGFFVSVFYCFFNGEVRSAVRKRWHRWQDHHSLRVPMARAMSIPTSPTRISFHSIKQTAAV
T1 sequence (P24387 whole entry): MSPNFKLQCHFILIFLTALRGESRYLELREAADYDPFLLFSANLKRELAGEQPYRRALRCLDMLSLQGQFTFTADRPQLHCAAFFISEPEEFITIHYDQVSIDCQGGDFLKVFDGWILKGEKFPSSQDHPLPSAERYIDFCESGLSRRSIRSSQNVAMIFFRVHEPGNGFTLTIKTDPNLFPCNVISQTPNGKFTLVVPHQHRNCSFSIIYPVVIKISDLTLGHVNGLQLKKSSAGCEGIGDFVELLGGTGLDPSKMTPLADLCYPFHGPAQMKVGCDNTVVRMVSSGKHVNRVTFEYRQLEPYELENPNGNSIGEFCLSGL
Briefly: Dose Response confirmation of uHTS hits for small molecule antagonists of the CRF-binding protein and CRF-R2 receptor complex. Type of experiment: functional. Particulars: read-out: IC50_Mean.

Experiment [4] addresses T1, Corticotropin-releasing factor receptor 2/Corticotropin-releasing factor-binding protein. Description: activators of CRF receptor 2 with binding protein – uHTS hits, confirmation (AID 602473). The experiment is classed as functional. To be noted: read-out: EC50_Mean.
The nature of a further experiment: cells. The experiment is classed as functional.
In a further experiment the target is T2, Protein skinhead-1 (Caenorhabditis elegans, UniProt P34707).
T2 sequence (P34707 whole entry): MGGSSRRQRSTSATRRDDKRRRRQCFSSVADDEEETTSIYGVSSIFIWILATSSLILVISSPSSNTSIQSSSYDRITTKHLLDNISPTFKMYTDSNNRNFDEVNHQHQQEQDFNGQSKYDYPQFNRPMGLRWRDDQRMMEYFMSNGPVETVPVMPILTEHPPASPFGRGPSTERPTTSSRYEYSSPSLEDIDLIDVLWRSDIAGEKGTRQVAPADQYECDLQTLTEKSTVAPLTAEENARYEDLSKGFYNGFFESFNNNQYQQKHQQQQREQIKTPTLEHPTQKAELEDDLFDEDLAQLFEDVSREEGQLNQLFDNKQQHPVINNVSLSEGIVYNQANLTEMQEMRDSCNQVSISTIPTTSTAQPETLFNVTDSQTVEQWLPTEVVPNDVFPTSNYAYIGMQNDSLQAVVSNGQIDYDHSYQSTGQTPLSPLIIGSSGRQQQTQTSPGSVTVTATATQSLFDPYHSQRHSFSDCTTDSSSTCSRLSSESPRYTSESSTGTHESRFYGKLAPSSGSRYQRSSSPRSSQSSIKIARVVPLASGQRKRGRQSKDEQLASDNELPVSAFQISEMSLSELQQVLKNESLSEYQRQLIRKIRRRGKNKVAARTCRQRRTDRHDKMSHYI
The experiment is classed as functional.

The nature of experiment [5]: viability of HCT116 lacking mutant beta-catenin – cell-based, human colon tumor, dose response (AID 1045).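 Note: HCT116 colon tumor cells with beta catenin knocked out; cells exposed to compound for 60 hours.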 The experiment is classed as functional.
Experiment [6] has as its target Heat shock protein HSP 90-alpha (Homo sapiens, UniProt P07900). Type of experiment: functional, organism-based.
A short description of experiment [7]: Luminescence Cell-Based Dose Retest to Confirm Inhibitors of Cancer Stem Cells. [Related pubchem assays (depositor defined):AID2717, AID2721]. The experiment is classed as functional. Particulars: Homo sapiens.
The nature of experiment [8]: viability of PTEN-deleted HCT116 cells – cell-based, HCT116 PTEN knockout, dose response (AID 1047).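 Note: HCT116 colon tumor cells with PTEN knocked out; cells exposed to compound for 60 hours before readout; potency for loss of cell viability measured by luminescence.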 The experiment is classed as functional.
Another experiment relates to INS1. Briefly: INS-1E survival protection against cytokine death – cell-based, luminescence, retest, dose response (AID 449756).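 Note: cell death triggered by IL-1 beta plus TNF-alpha plus IFN-gamma mixture; protective hits raise ATP signal compared with cytokine alone wells.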 Type of experiment: functional. To be noted: Rattus norvegicus.
Experiment [9] has as its target T3, Hepatocyte nuclear factor 4-alpha (Homo sapiens, UniProt P41235).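 Note: biochemical luminescence-based dose-response counterscreen measuring inhibition of HNF4 dimerization, run alongside a screen for blockers of ABHD5–perilipin-5 interaction; split luciferase complementation of HNF4 fusion proteins in cell lysate measuring dimerization.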
T3 sequence (P41235 whole entry): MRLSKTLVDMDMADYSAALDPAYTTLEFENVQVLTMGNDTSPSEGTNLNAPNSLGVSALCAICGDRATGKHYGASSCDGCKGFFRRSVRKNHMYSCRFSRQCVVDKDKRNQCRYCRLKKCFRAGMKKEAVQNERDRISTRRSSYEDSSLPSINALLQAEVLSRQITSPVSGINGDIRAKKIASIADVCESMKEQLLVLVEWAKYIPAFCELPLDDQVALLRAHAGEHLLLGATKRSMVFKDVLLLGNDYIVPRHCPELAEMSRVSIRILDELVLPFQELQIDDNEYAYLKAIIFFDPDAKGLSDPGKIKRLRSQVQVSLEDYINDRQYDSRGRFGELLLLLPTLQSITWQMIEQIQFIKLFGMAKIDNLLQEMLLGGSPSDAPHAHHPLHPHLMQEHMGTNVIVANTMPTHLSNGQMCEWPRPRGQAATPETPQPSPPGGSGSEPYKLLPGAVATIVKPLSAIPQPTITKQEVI
Type of experiment: functional, cell-based.

Experiment [10] can be described thus: HIV-1 AD8 envelope cell-cell fusion blockers – cherry-pick, dose response (AID 652062).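 Note: luciferase signal from cell-cell fusion driven by HIV-1 clade B AD8 Env; potency is for inhibitors of fusion seen as a drop in luminescence.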 The experiment is classed as functional, cell-based.
Experiment [11] in a line: blockers of HIV-1 ZM109 envelope-driven cell-cell fusion – HeLa effector, CEM target cells, luciferase, cherry-pick, dose response (AID 652058).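 Note: luciferase signal from HIV-1 Env mediated cell-cell fusion of effector and target cells.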 The experiment is classed as functional, cell-based.
A short description of experiment [12]: blockers of HIV-1 envelope-mediated cell-cell fusion – cherry-pick, dose response (AID 652057). The experiment is classed as functional, cell-based.
A short description of experiment [13]: viability loss in CEM21 cells – cell-based, CellTiter-Glo luminescence, cherry-picked, cytotoxicity control for viral fusion inhibitor project, dose response (AID 652042).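 Note: potency for signal decrease meaning cytotoxicity.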 The experiment is classed as functional. (ATP-based viability assays read luminescence as a measure of living cells.)
Experiment [14] can be described thus: off-target signal loss in HeLa-CEM21 co-culture – HeLa F-luc CTL cells, cherry-picked, counter-screen for HIV-1 Env fusion inhibitor project, dose response (AID 652040).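 Note: potency for signal decrease marking cytotoxic or nonspecific inhibition.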 The experiment is classed as functional, cell-based. (A counterscreen serves to expose hits that act by an unwanted route or on another target.)
The target of experiment [15] is T4, Sentrin-specific protease 8 (Homo sapiens, UniProt Q96LD8).
T4 sequence (Q96LD8 whole entry): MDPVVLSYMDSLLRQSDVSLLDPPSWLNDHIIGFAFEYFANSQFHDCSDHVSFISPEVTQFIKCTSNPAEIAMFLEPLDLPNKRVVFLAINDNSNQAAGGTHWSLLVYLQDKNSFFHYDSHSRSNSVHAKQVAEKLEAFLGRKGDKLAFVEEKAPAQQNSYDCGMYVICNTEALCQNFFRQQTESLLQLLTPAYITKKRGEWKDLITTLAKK
Type of experiment: functional.

In experiment [16] the target is T5, Carboxy-terminal domain RNA polymerase II polypeptide A small phosphatase 1 (Homo sapiens, UniProt Q9GZU7).
T5 sequence (Q9GZU7 whole entry): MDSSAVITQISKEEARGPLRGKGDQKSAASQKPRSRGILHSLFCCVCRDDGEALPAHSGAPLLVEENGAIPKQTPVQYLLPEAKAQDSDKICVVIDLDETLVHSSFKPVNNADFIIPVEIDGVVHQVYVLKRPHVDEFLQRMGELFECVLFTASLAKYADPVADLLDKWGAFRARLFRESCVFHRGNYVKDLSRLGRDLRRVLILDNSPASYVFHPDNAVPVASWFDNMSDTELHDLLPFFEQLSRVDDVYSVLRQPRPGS
Briefly: CTDSP1 inhibitors, concentration-response, biochemical, absorbance readout, ultra-high-throughput screen actives (AID 540297). Type of experiment: functional.

Experiment [17] deals with T6, Fatty acid synthase (Homo sapiens, UniProt P49327). Briefly: inhibition of human FAS-TE enzyme activity – biochemical, endpoint fluorescence intensity, uHTS hits, dose response (AID 624327).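 Note: fluorescence from hydrolysis of an O-methyl fluorescein acyl ester substrate by the enzyme.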 The experiment is classed as functional.
T6 sequence (P49327 whole entry): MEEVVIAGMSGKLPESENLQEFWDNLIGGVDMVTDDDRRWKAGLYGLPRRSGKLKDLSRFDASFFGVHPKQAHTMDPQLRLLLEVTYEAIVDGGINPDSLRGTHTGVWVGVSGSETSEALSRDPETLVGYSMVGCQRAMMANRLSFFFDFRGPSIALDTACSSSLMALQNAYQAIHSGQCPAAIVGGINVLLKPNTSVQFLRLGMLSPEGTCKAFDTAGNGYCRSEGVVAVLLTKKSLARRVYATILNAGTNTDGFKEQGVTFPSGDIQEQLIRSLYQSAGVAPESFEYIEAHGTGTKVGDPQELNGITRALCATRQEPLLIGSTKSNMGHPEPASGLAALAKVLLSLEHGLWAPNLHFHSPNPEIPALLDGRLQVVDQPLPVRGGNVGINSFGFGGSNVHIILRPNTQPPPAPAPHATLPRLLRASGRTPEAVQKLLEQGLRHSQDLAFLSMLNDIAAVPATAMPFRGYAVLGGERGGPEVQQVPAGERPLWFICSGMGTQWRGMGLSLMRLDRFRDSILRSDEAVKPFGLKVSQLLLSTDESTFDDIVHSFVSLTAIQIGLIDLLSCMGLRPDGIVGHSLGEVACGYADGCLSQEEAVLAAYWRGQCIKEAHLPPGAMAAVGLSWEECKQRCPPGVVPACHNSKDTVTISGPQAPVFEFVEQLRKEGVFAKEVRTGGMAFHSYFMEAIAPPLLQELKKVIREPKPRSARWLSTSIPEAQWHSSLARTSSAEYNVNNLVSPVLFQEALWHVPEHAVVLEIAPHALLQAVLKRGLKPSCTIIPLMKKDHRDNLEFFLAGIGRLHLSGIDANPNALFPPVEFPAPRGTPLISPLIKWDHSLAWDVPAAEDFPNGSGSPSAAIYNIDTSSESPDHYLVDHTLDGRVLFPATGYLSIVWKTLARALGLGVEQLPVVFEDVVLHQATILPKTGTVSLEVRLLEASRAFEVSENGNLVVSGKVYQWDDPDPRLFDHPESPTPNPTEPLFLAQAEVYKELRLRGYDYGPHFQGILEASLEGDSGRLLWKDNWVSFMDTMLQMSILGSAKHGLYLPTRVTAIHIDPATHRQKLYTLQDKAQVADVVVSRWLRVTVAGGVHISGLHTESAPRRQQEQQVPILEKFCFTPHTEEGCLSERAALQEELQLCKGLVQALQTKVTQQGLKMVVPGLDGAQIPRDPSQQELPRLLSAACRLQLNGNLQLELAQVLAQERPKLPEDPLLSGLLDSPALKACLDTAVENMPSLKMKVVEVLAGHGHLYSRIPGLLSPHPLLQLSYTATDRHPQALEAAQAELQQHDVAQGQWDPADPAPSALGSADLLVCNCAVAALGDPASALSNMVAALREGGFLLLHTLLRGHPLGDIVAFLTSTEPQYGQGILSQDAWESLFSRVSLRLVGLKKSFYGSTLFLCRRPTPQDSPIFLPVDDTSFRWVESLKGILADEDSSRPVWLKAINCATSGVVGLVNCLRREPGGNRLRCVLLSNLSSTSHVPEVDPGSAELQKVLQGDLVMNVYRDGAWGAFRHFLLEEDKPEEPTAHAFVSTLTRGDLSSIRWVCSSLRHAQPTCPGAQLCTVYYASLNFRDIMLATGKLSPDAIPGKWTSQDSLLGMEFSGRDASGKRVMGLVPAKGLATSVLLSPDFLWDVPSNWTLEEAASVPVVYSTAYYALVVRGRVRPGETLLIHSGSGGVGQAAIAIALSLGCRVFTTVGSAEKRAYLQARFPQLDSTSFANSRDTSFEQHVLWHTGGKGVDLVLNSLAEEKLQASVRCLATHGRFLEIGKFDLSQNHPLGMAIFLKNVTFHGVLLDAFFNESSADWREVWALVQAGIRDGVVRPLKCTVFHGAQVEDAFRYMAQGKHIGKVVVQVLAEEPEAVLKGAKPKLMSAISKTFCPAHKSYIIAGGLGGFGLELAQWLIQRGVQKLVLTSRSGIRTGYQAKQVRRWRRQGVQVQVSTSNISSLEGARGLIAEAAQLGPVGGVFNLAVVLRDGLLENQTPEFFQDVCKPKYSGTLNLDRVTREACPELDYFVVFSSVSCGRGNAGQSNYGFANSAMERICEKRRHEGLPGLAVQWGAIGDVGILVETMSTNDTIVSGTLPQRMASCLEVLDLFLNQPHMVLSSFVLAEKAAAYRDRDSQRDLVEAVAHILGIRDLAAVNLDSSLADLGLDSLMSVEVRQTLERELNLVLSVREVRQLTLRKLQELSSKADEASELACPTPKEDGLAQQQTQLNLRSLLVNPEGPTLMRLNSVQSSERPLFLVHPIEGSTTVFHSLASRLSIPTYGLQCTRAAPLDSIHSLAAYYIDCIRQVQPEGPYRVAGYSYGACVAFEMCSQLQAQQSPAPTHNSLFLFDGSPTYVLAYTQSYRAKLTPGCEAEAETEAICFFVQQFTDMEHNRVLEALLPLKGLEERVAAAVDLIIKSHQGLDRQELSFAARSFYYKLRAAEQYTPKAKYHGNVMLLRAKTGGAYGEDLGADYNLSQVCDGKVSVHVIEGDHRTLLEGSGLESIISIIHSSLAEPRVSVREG
The target in experiment [18] is T6, Fatty acid synthase. Description: inhibition of human FAS-TE enzyme activity – biochemical, kinetic fluorescence intensity, dose response (AID 624326).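 Note: rate of fluorescence rise from hydrolysis of a fluorogenic O-methyl fluorescein ester substrate.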 Type of experiment: functional.
The target in experiment [19] is T4, Sentrin-specific protease 8. The experiment is classed as functional. The source holds these as a separate data set.

Calls of active or inactive are those of the source.

Mu-type opioid receptor, sequence (P35372 whole entry): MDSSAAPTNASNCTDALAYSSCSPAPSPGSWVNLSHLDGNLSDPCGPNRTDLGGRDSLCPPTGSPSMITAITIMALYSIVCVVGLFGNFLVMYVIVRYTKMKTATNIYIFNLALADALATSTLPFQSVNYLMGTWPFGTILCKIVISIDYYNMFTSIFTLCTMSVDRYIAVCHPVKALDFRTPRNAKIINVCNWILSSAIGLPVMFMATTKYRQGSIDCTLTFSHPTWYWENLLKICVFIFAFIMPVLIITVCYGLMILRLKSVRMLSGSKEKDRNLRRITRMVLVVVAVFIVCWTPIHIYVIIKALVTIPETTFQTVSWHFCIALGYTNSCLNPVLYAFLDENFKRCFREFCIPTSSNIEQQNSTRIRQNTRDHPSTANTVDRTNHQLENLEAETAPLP

`O=C(c1ccco1)N1CCN(CCCCOc2ccc(F)cc2)CC1`: the EC50 at Mu-type opioid receptor is 92.5 µM (inactive); in [1] it was 4.68 µM (active).

In the case of `CC(=O)NC(Cc1ccc(C(C)C)cc1)C(=O)NC1CCN(C(=O)c2cccc(C)c2)CC1` (stereo not given), the IC50 was 10.8 µM (active) in [2] and 24.4 µM (active) in experiment [3]. In [4], the EC50 was > 53 µM (inactive).

Consider `CCOC(=O)C1CCN(Cc2cccc(Oc3ccc(Cl)cc3)c2)CC1`, for which the EC50 at Mu-type opioid receptor is 92.5 µM (inactive); in [1], 2.82 µM (active).

As to `Cc1cc(C)n(-c2ccc(C(=O)Oc3ccc4c(c3)OCO4)cc2)n1`, the IC50 in [2] was > 20 µM (inactive); in “cells” it was 6.28 µM (active); in experiment [3], 9.66 µM (active); on Protein skinhead-1 it was > 100 µM (inactive). Further, in experiment [4], the EC50 is > 53 µM (inactive).

Take `O=C(C1CCC1)N1CCc2cc(S(=O)(=O)NCCN3CCN(c4ccccc4F)CC3)ccc21`: the EC50 at Mu-type opioid receptor is 92.5 µM (inactive); in experiment [1], 13.4 µM (inactive).

Take `O=[N+]([O-])/C=C/c1cn(Cc2ccc(F)cc2)c2ccccc12`: the figures for the EC50 in [5] and in experiment [8] were 16.4 µM (active) and 15.2 µM (active), respectively. For the same molecule, the AC50 was 8.8 µM (active) in [6], 3.2 µM (active) in experiment [7] and 16.9 µM (active) in the experiment on INS1. Moreover, the IC50 in experiment [9] is 4.49 µM (active).

As to `O=C1NC(=S)S/C1=C\c1cc(Cl)ccc1Cl`, the IC50 in experiment [2] is 9.52 µM (active); in [3], 2.87 µM (active). In experiment [4], the EC50 was > 53 µM (inactive).

For the molecule `COc1ccc(CC(N)c2csc(NC(=O)Nc3ccccc3Oc3ccccc3)n2)cc1` (stereo not given), the half-maximal activity concentration (AC50) in experiment [10] was 2.16 µM (active); in experiment [11] it was 2.85 µM (active); in experiment [12], 1.17 µM (active); in experiment [13], 21.3 µM (active); in experiment [14] it was 1.72 µM (active).

Regarding `Cc1ccc(-n2[nH]c(C)c(/C=N/Nc3ccc([N+](=O)[O-])cc3[N+](=O)[O-])c2=O)cc1`, the IC50 in experiment [15] was 62.4 µM (inactive); in experiment [16], 6.07 µM (active); on Fatty acid synthase [17], 12.6 µM (active); on Fatty acid synthase [18] it was 13.6 µM (active); in experiment [19], 100 µM (inactive); in [3], 6.1 µM (active). For the same molecule, the EC50 in [4] was > 53 µM (inactive).

One may read the AC50 as the concentration at which the activity in the assay is half-maximal.
